# Measurements reported in patent US20170176446A1, “Methods for Determining the Oncogenic Condition of Cell, Uses Thereof, and Methods for Treating Cancer” (INSERM (INSTITUT NATIONAL DE LA SANTE ET DE LA RECHERCHE …, priority 2009, published 2017).
# Experiments:
# ChEH [1] = molecular target: T1, ChEH (Rattus norvegicus, UniProt Q9JJ46); assay: Determination of the Ki for ChEH on rat liver microsome proteins (Dixon method); assay type: biochemical; conditions: 150 μg rat liver microsome proteins, [14C]CEα
# T1 construct: 150 μg of rat liver microsome proteins are incubated; from tissue; host or cells: rat liver microsomes
# T1 sequence (Q9JJ46 1-230): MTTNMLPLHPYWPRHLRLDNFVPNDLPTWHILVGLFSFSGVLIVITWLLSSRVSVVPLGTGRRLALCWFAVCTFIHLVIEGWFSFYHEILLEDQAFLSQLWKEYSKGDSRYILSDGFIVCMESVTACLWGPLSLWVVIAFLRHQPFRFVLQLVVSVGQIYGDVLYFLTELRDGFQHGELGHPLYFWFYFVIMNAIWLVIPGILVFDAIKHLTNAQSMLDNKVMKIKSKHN
# ChEH [2] = molecular target: T2, ChEH (Homo sapiens, UniProt Q15125); assay: ChEH activity on MCF7 cell lysate (homogenate); assay type: biochemical; conditions: 150 μg of proteins, read-out: (IC50)homogenate, ChEH inhibition
# T2 construct: MCF7 tumor cells, which originate from the American Tissue Culture Collection (ATCC), were used; host or cells: MCF7
# Description: Moreover, a study of this inhibition on homogenate was also carried out. The protocol is as follows: the MCF7 cells are detached with trypsin and taken up with RPMI medium containing 5% FBS. The cell suspension obtained (60 million cells) is centrifuged, washed with cold PBS and resuspended in 1 ml of […] buffer (pH=7.4; 150 mM KCl). The cells are lyzed by means of five freezing/thawing (liquid nitrogen/37° C.) cycles. The solution is centrifuged at 1200 rpm at 4° C. for 10 minutes. The supernatant is recovered and the amount of proteins is determined by the Bradford method. The measurement of the ChEH activity on MCF7 cell lysate is carried out as follows: the enzymatic activity is measured on 150 μg of proteins in a final volume of 150 μl containing […] of ChEH buffer (Tris-HCl, pH 7.4, 150 mM KCl) and 15 μl of MCF7 proteins.
# OCDO = OCDO content of TS/A tumors by GC/MS; assay type: in vivo, mice; conditions: DDA 10 μM, 100 μl intratumorally once a day
# Description: 5 volumes (relative to the mass removed) of buffer (50 mM Tris-HCl, 150 mM KCl, pH=7.4) are added. The tumors are ground and the homogenates are centrifuged for 5 minutes at 2500 rpm at 4° C. […] After centrifugation (to separate the phases), the organic phase is recovered. The organic phase is evaporated to dryness and then the residue is taken up with 0.5 ml of chloroform. The organic extracts are filtered on 0.5 ml silica cartridges. The polar sterols are eluted sequentially:
# 1) 0.5 ml of a hexane/chloroform mixture (1/1), 2) 0.5 ml of chloroform, 3) 0.5 ml of ethyl acetate and methanol.
# The ethyl acetate fractions are evaporated, silylated (50 μl 1/1 acetonitrile/BSTFA) and then analyzed by GC/MS (2 μl) according to the conditions described above.
# MCF7 cells = assay: OCDO production by MCF7 cells incubated with [14C]CE, thin-layer chromatography; assay type: cell-based, human; conditions: concentration in μM in parentheses after each molecule; control = 100
# Text: For assays 1 to 5 and in some of the examples given later in this patent application, MCF7 tumor cells, which originate from the American Tissue Culture Collection (ATCC), were used. […] It is desired to study the activity of ChEH in […] cells by silica thin-layer chromatography. The compounds that it is desired to visualize are the CE and CT compounds defined above. In order to visualize the spots corresponding to CE and CT on a chromatography plate, ^14C-labeled CE and CT compounds were synthesized.
# In order to be used in assays 1 to 5 which follow, the cells are seeded into 6-well plates at a density of 80 000 cells in a volume of 2 ml. […] After the incubation time desired for the assay, the medium is collected, the cells are washed with cold PBS (phosphate buffer) (2 ml per well) which is pooled with the medium. The cells are then scraped into cold PBS (1 ml for 3 wells); the wells are again rinsed with cold PBS (1 ml for 3 wells). The cell suspension obtained is centrifuged at 1000 rpm for 5 min at 4° C. […] Throughout the rest of this description, the vehicle solvent used is the same as that defined above.
# The aqueous and organic radioactivities are counted. The organic phases are brought to dryness under argon. The residue is resuspended in 60 μl of ethanol and then deposited, in a proportion of 20 μl per lane, on to the glass-backed silica plates (Whatman LK-6-DF, 20×20), which are used in the various assays (these plates having been preheated at 100° C. for 1 hour). The migration solvent used is ethyl acetate. The chromatography plates are placed in contact with a “phosphor-screen” plate in a cassette overnight. […] In order to evaluate the more or less dense nature of the spots obtained on the plates, the radioactivity is quantified by densitometry with the “Imagequant”™ computer program.
# Generally, in order to establish the percentages of OCDO inhibition from the thin-layer chromatography (TLC) plates obtained as in assay 2, the radioactive metabolites are identified and quantified on the basis of said plates using a europium-sensitive plate of GP Phosphor screen type (GE Healthcare) and a Storm 840 phosphorimagor (GE Healthcare). The proportion of radiolabeled oxysterols is determined on the autoradiogram obtained by densitometry using the Image Quant 5.2 software. The percentage is calculated on the basis of the ratio between the amount of oxysterols quantified divided by the sum of the amounts of oxysterols (CEE+CE+CT+OCDO). Since the CEE (CE ester) originates exclusively from the CE, the percentage CE is calculated on the basis of the ratio (CE+CEE)/(CE+CEE+CT+OCDO).
# Assay 2 given above was therefore completed by measuring the amounts of the products present when the MCF7 tumor cells are incubated as indicated in detail in assay 2.
# In order to establish that the link that exists between, on the one hand, the ability of various compounds to inhibit OCDO in an MCF7 tumor cell and, on the other hand, their quality as a ChEH inhibitor, is well-founded, the inhibition coefficients Ki for ChEH relating to a certain number of products was calculated and the production of OCDO by MCF7 cells after incubation of the cells with the same products was measured according to the protocol defined in assay 2 of the present patent application.
# ChEH [3] = molecular target: T2, ChEH; assay: Inhibition of ChEH activity in MCF7 cells (TLC of [14C]CE conversion); assay type: cell-based; conditions: 48 hours, MCF7 cells
# Description: For this experiment, an aminoalkyl sterol included in French patent 2 838 741 (and also see: de Medina et al., J Med Chem: 2009, vol. 52, No. 23, p. 7765-7777), having the formula: 6-N-[2-(3H-imidazol-4-yl)ethylamino]cholestane-3β,5α-diol (DDA), was chosen. […]
# A thin-layer chromatography was carried out, the plate of which has been reproduced in FIG. 23. On this plate, the incubation is carried out, for lane 1, with [^14C]CE; for lane 2, with [^14C]CT; for lane 3, with the vehicle solvent, which is the same as that used for assays 1 to 5; for lane 4, with [14C]CE and 0.1 μM of the aminoalkyl sterol; and for lane 5, with [^14C]CE and a concentration of 1 μM of the aminoalkyl sterol.
# TS/A cells = assay: Tumor size of TS/A tumors implanted in BALB/c mice, intratumoral treatment; assay type: in vivo; conditions: DDA 10 μM, 100 μl intratumorally once a day
# Description: A cell culture of TS/A cells was first performed. These TS/A cells are mouse mammary adenocarcinomas (see Nanni P et al., Clin. Exp. Metastasis, 1983 October-December; 1(4): 373-80). The cells are cultured, at 37° C. under 5% CO2, in a DMEM medium supplemented with 2 g/liter of sodium carbonate, 1.2 mM of glutamine (pH 7.4 at 23° C.), 5% of fetal bovine serum (Gibco) and 2.5 ml of antibiotics per liter of medium (penicillin/streptomycin).
# The TS/A cells are recovered with trypsin, washed twice and suspended in PBS buffer. The TS/A cells (approximately 4×10^6 […] cells/0.1 ml) are then injected subcutaneously into the flank of 6-week-old female BALB/c mice (supplied by Charles River). […] The animals (10 mice per group) are monitored regularly for tumor development. The volume of the tumors is calculated according to the following formula: L×l^2×0.5 (L is the length and l is the width of the tumor). The experiment was reproduced twice. The results are given in FIG. 18 (the arrow indicates the beginning of the treatment).
# T2 sequence (Q15125 whole entry): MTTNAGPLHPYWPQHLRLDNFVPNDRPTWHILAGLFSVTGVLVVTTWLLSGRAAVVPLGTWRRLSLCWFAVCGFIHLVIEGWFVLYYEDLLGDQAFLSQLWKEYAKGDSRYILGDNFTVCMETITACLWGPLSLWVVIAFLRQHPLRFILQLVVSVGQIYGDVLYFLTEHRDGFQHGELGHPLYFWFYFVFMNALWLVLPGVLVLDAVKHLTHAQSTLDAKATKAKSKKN
smiles,measurement,setting,value
"CC(C)CCC[C@@H](C)[C@H]1CC[C@H]2[C@@H]3C[C@@H](NCCc4c[nH]cn4)[C@@]4(O)C[C@@H](O)CC[C@]4(C)[C@H]3CC[C@]12C [DDA, 6-N-[2-(3H-imidazol-4-yl)ethylamino]cholestane-3β,5α-diol]",Ki,ChEH [1],1250 ± 6 nM
same,IC50,ChEH [2],11200 nM
same,OCDO (% control),OCDO; Day 28,14.5 ± 3 % control
same,OCDO (% control),OCDO; Day 37,4.5 ± 3 % control
same,OCDO production by MCF-7 (% control),MCF7 cells,<1 % control
same,inhibition of ChEH,"ChEH [3]; 0.1 and 1 μM, dependent on the concentration",causes an inhibition of ChEH
same,IC50,ChEH [3]; [14C]CE 0.6 μM,600 nM
same,Tumor size (% control),TS/A cells; Day 28,65.4 ± 7 % control
same,Tumor size (% control),TS/A cells; Day 37,28.3 ± 8 % control
